Values joined by “and” are separate entries in the source; they are usually repeats but may differ in a detail not shown here. Equal entries are not always repeated.

The term pKa denotes the pH at which an ionisable group is half protonated. A low value points to a stronger acid or weaker base. Take `O=C(O)CCCc1ccc(N(CCCl)CCCl)cc1`: the pKa turned out to be 5.8.
The result for `Cc1cc(Br)cc(C)c1N=C1NCCN1` reads 10.2; that for `Cc1nc2c(CCc3ccccc3)cccn2c1CC#N`, 6.
The same measure for `O=C(c1nnc(-c2ccccc2)o1)N1CC(Oc2ccc(CN3CC4(COC4)C3)cc2)C1`: 8; for `COc1ccc2c3c1O[C@H]1[C@@H](O)C=C[C@H]4[C@@H](C2)N(C)CC[C@@]341`: 8.2.
The same measure for `Cc1nc2c(C/C=C/c3ccccc3)cccn2c1CC#N`: 6; for `CC(CN(C)C)CN1c2ccccc2CCc2ccccc21` (configuration not stated): 9.24; for `Clc1cc(Br)cc(Cl)c1N=C1NCCN1`: 7.72.
As for `CC12CC3(C)CC(C)(C1)CC(N)(C2)C3`, the pKa came out at 10.6.
The result for `Clc1ccc(N=C2NCCN2)c(Cl)c1` reads 8.73.
For `CC(C(=O)O)c1ccc(-c2ccccc2)c(F)c1` (configuration not stated), the pKa was 4.6 and 4.2.
`CSc1ccc2c(c1)N(CCC1CCCCN1C)c1ccccc1S2` (configuration not stated) gave a pKa of 9.5.
As for `Cc1ccc(Nc2c3ccccc3nc3ccccc23)cc1`, the pKa came out at 7.72.
The same measure for `NS(=O)(=O)c1ccc(Nc2c3ccccc3nc3ccccc23)cc1`: 6.11; for `CCS(=O)(=O)Nc1ccc(Nc2c3ccccc3nc3ccccc23)cc1`: 7.19; for `CC(C)NCC(O)COc1ccc(COCCOC(C)C)cc1` (configuration not stated): 9.57.
The result for `Cc1cc(OCCN2CCOCC2)nn1-c1ccc2ccccc2c1` reads 6.5; that for `CNc1ccc(Nc2c3ccccc3nc3ccccc23)cc1`, 8.42; that for `Cc1nc2c(/C=C/Cc3ccccc3)cccn2c1CC#N`, 5.7.
The result for `Cc1cnc(NCCc2ccccc2)c(=O)n1CC(=O)NC[C@@H]1CNC(N)=N[C@@H]1C` reads 14; that for `CN/C(=N/CCSCc1nc[nH]c1C)NC#N`, 6.8 (3×) and 6.97 (2×).
The compound `C/C(=N\N=C(/S)N/N=C(\S)Nc1cccc(I)c1)c1ccccn1` gave a pKa of 7.03.
The same measure for `CS(=O)(=O)Nc1ccc(Nc2c3ccccc3nc3ccc(Cl)cc23)cc1`: 6.42; for `CN1CCN2c3ncccc3Cc3ccccc3C2C1` (configuration not stated): 7.3.
The result for `CC1=NS(=O)(=O)c2cc(Cl)ccc2N1` reads 8.62; that for `Cc1ncc2n1-c1ccc(Cl)cc1C(c1ccccc1F)=NC2`, 5.44.
The result for `Cc1c(N(C)C)c(=O)n(-c2ccccc2)n1C` reads 4.48; that for `Cc1nc2c(CCc3ccccc3)cccn2c1N`, 7.3.
Compound `CS(=O)(=O)[O-].NC(=O)CCc1ccc(Nc2c3ccccc3[nH+]c3ccccc23)cc1` registered a pKa of 7.63.
The same measure for `c1ccc(CC2CCN(CCCc3c[nH]c4ccc(-n5cnnc5)cc34)CC2)cc1`: 9.7; for `Brc1ccccc1Nc1c2ccccc2nc2ccccc12`: 6.41.
The result for `CCCOC(=O)c1ccc(OS(N)(=O)=O)cc1` reads 8.03.
The same measure for `CN(C)CC(F)(F)F`: 4.8; for `CCCn1c(=O)c2nc(-c3ccc(S(=O)(=O)NCCN(C)C)cc3)[nH]c2n(CCC)c1=O`: 8.
`Clc1cccc(N=C2NCCN2)c1Cl` showed a pKa of 8.55.
The same measure for `COc1cc(NS(C)(=O)=O)ccc1Nc1c2ccccc2nc2cc(Cl)ccc12`: 6.84; for `COc1ccc(Nc2c3ccccc3nc3ccccc23)cc1`: 7.94; for `O=C(O)c1ccc(-c2ccc(O[C@H]3O[C@H](CO)[C@@H](O)[C@H](O)[C@@H]3O)cc2)cc1`: 3.88.
The result for `CN1C[C@H](C(=O)N[C@]2(C)O[C@@]3(O)[C@@H]4CCCN4C(=O)[C@H](Cc4ccccc4)N3C2=O)C=C2c3cccc4[nH]cc(c34)C[C@H]21` reads 6.3; that for `O=C(Nc1noc2ccccc12)N1CCN(Cc2cccc(Oc3ccc(Cl)cc3)c2)CC1`, -4.7.
The same measure for `Cc1nc2c(OCc3ccccc3)cccn2c1CC#N`: 5.5.
`CSc1nc(N)c2ncn([C@@H]3O[C@H](COP(=O)(O)OP(=O)(O)CP(=O)(O)O)[C@@H](O)[C@H]3O)c2n1` registered a pKa of 8.4.
`O=C(c1ccc(Cl)cc1)c1ccc(OC2CN3CCC2CC3)cc1` (configuration not stated) had a pKa of 9.1.
The same measure for `CNc1ccc([N+](=O)[O-])c2c(NCCCN(C)C)ccnc12`: 4.22; for `BP(=O)(OC[C@H]1O[C@@H](n2cnc3c(N)ncnc32)[C@H](O)[C@@H]1O)OP(=O)(O)C(Cl)(Cl)P(=O)(O)O` (some centres not stated): 7; for `O=C1N=C(O)NC1(c1ccccc1)c1ccccc1`: 8.
On to `Brc1cccc(Br)c1N=C1NCCN1`, for which the pKa was determined as 7.8.
The same measure for `COc1cc(NS(C)(=O)=O)ccc1Nc1c2ccccc2nc2c(C#N)cccc12`: 4.87; for `O=c1ccc(-c2ccc(S(=O)(=O)Nc3cccc4c3CCCC4)s2)n[nH]1`: -2.5; for `CS(=O)(=O)Nc1cccc(Nc2c3ccccc3nc3ccccc23)c1`: 6.85.
The result for `CNC(=C[N+](=O)[O-])NCCSCc1ccc(CN(C)C)o1` reads 8.47; that for `NS(=O)(=O)c1cc(S(=O)(=O)c2ccc(O)cc2)cs1`, 7.46.
The result for `Cl.Fc1ccc2c(c1)N(CCCN1CCCCC1)c1cc(F)ccc1CC2` reads 7.6; that for `Cc1cc(C)c(N=C2NCCN2)c(C)c1`, 10.8.
Take `N[C@H]1C[C@]1(F)c1ccccc1`: the pKa came out at 7.35.
In turn, `Cc1nc(N)ncc1CNC(=O)Cn1c(C)cnc(NCCc2ccc3c(c2)CCO3)c1=O` had a pKa of 4.2.
The same measure for `COc1cccc2c(Nc3ccc(NS(C)(=O)=O)cc3)c3ccccc3nc12`: 7.15; for `CN1C=CN(C2NC(C(F)(F)F)=CN2c2ccc(S(N)(=O)=O)cc2)C=C1` (configuration not stated): 7.34.
The compound `COC(=O)c1ccccc1Nc1c2ccccc2nc2ccccc12` displayed a pKa of 6.3.
`N[C@@H]1C[C@]1(F)c1ccccc1` came in with a pKa of 6.98.
The same measure for `Oc1cc(C2CCNCC2)sn1`: 10.7; for `CC1=CN(c2ccc(S(N)(=O)=O)cc2)C(N2C=CN(C)C=C2)N1` (configuration not stated): 7.11.
The result for `Nc1ncnc2c1ncn2[C@@H]1O[C@H](COS(=O)(=O)NC(=O)c2ccccc2)[C@@H](O)[C@H]1O` reads 2.8.
Take `Nc1ccc(Nc2c3ccccc3nc3ccccc23)cc1`: the pKa worked out at 8.36.
Take `Clc1ccc(Cl)c(N=C2NCCN2)c1`: the pKa was determined as 8.5.
The same measure for `CNc1ncnc2c1ncn2Cc1ccccc1F`: 3.88.
The result for `CSc1nccn1C` reads 5.95; that for `N#Cc1ccc(Nc2c3ccccc3nc3ccccc23)cc1`, 5.93; that for `CCCCCCCOC(=O)c1ccc(OS(N)(=O)=O)cc1`, 8.27.
The same measure for `COc1cccc(S(=O)(=O)Nc2cccn(CC(=O)NCc3nc(C(=N)N)cs3)c2=O)c1`: 8.8.
As to `C/C(=N\N=C(/S)N/N=C(\S)Nc1cccc(Cl)c1Cl)c1ccccn1`, the pKa stood at 7.09.
In turn, `Cc1c(-c2noc(-c3ccc(OC(C)C)c(C#N)c3)n2)ccc2c1CCN(C(CO)CO)C2` registered a pKa of 7.3.
For the compound `Fc1ccc(Nc2c3ccccc3nc3ccccc23)cc1`, the pKa is 7.5.
The same measure for `CNC(=O)c1cccc2c(Nc3ccc(NS(C)(=O)=O)cc3OC)c3cccc(C)c3nc12`: 6.4; for `Br.Oc1noc2c1CNCC2`: 4.3.
The result for `COc1cc(NS(C)(=O)=O)ccc1Nc1c2ccccc2nc2ccc(N)cc12` reads 7.37.
The same measure for `Clc1cccc(Br)c1N=C1NCCN1`: 7.93; for `Cn1ccnc1`: 7.12.
`Cc1cnc(NCC(F)(F)c2ccc(F)cc2)c(=O)n1CC(=O)NCc1cnc(N)cn1` returned a pKa of 2.7.
The result for `Cc1cc(C)c(N=C2NCCN2)c(Cl)c1` reads 9.59; that for `Cc1cccc(Nc2c3ccccc3nc3ccccc23)c1`, 7.52.
The same measure for `CC(C)n1c(/C=C/C(O)CC(O)CC(=O)O)c(-c2ccc(F)cc2)c2ccccc21` (configuration not stated): 4.31.
`CN(C)CCNC(=O)c1cccc2c(N)c3ccccc3nc12`: the pKa was determined as 8.3.
The result for `Nc1ccccc1Nc1c2ccccc2nc2ccccc12` reads 7.87; that for `CCOC(=O)c1ccc(OS(N)(=O)=O)cc1`, 8.22; that for `CC(C)Oc1ncc(-c2nc(-c3cccc4c3OCCNC4CCCC(=O)O)no2)cc1Cl` (configuration not stated), 7.98.
The result for `CNCC[C@@H](Oc1ccccc1C)c1ccccc1` reads 10.1; that for `FC(F)(F)c1c(N2CCC(c3ccccc3)CC2)ccn2c(CC3CC3)nnc12`, 4.1; that for `Cc1ccc(N=C2NCCN2)c(C)c1`, 10.6.
`NC(N)=S` registered a pKa of 21.1.
The same measure for `CC(=O)N[C@@H](Cc1cc(F)cc(F)c1)[C@H](O)CNC1(c2cccc(C(C)(C)C)c2)CCCCC1`: 8.1; for `COc1ccc2c(Nc3ccc(NS(C)(=O)=O)cc3)c3ccccc3nc2c1`: 7.57; for `COc1cc(NS(C)(=O)=O)ccc1Nc1c2ccccc2nc2cc(C)ccc12`: 7.7.
The result for `CNC(=O)Nc1ccc(Nc2c3ccccc3nc3ccccc23)cc1` reads 7.77.
The result for `COc1cccc(Nc2c3ccccc3nc3ccccc23)c1` reads 7.21.
In turn, `CC(=O)Nc1ccc2c(Nc3ccc(NS(C)(=O)=O)cc3)c3ccccc3nc2c1` registered a pKa of 7.34.
The same measure for `CS(=O)(=O)Nc1ccc(Nc2c3ccccc3nc3cnccc23)cc1`: 5.32; for `Ic1ccc(Nc2c3ccccc3nc3ccccc23)cc1`: 6.9.
The result for `c1ccc(-c2ncc[nH]2)cc1` reads 6.48; that for `CS(=O)(=O)Nc1ccc(Nc2c3ccccc3nc3ncccc23)cc1`, 5.93.
The same measure for `Cc1cccc2nc3ccccc3c(Nc3ccc(NS(C)(=O)=O)cc3)c12`: 6.43; for `Cc1nc2c3c(c(C(=O)N(C)C)cn2c1C)CCC(c1ccccc1)O3` (configuration not stated): 7.15.
In turn, `O=C(NCC1CCCCN1)c1cc(OCC(F)(F)F)ccc1OCC(F)(F)F` (configuration not stated) registered a pKa of 9.3.
The same measure for `NC(=O)CCCc1ccc(Nc2c3ccccc3nc3ccccc23)cc1`: 7.67; for `COc1cc(NS(C)(=O)=O)ccc1Nc1c2ccccc2nc2c(C(=O)NCC(N)=O)cccc12`: 6.18.
The same measure for `CS(=O)(=O)Nc1ccccc1Nc1c2ccccc2nc2ccccc12`: 6.86.
The same measure for `Oc1nsc2c1CNCC2`: 9.2.
